Data taken from PMC8762250, “Identification of Novel Chemical Scaffolds that Inhibit the Growth of Mycobacterium tuberculosis in Macrophages” (Frontiers in Pharmacology, 2022).
In brackets after ≈: the same amount, converted by molar mass. Read-outs that look alike come from different tables or passages of the source. Marks after values point to notes of the source that are not given here.

What was measured:
M. tuberculosis [1] = test: Minimum inhibitory concentration in liquid medium (axenic culture); type: cell-based, Mycobacterium tuberculosis; conditions: for IC50: read-out: Anti-tubercular activity in axenic culture IC50
[2] = HepG2 cytotoxicity (CellTiter-Glo, 72 h); type: cell-based, human; conditions: human
Experimental: (§1) Cytotoxicity against HepG2 cells was measured after 72 h. Cells were seeded in 384-well plates at 1,800 cells per well. Compounds were added as a 10-point three-fold serial dilution after 24 h (final assay concentration of 1% DMSO). CellTiter-Glo® reagent (Promega) was added and relative luminescence units (RLU) measured. Data were normalized to the DMSO controls. Curves were fitted using the Levenberg–Marquardt algorithm; TC50 was calculated as the compound concentration required to reduce cell viability by 50%.
(§2) We further evaluated cytotoxicity using the HepG2 cell line cultured with either glucose or galactose in the medium (Table 2). HepG2 cells cultured with galactose rely on mitochondrial oxidative phosphorylation rather than glycolysis which increases their susceptibility to mitochondrial toxicants allowing us to identify compounds with mitochondrial toxicity ([Kamalian et al., 2015]).

RAW264.7 cells [3] = test: Macrophage viability in the same high content assay; conditions: for Intracellular RAW TC50 / Intracellular activity Cytotoxicity TC50: infected RAW264.7 macrophages; for Intracellular RAW TC50: SAR tables 4-8; for Intracellular activity Cytotoxicity TC50: 72 h; for selectivity index (TC50/IC50): macrophage TC50 / intracellular IC50; for selectivity index (SI): HepG2 cells and/or macrophages, cell line not specified
[4] = tested on: non-replicating M. tuberculosis; set-up: method as in Christophe et al., 2009; conditions: ref Christophe et al., 2009; cited from earlier work
M. tuberculosis [5] = test: High content assay of intracellular M. tuberculosis growth in infected RAW264.7 macrophages; type: cell-based, Mycobacterium tuberculosis H37Rv-LP
Experimental: Compounds were obtained in 384-well plates as 10 mM DMSO stock solutions and tested as described ([Manning et al., 2017]). Briefly, assay plates were prepared in clear bottom, black 384-well plates with 30 μl cRPMI and 0.6 μl compound in columns 3–22 (final concentration of 10 μM compound, 1% DMSO). […] INH and STA were also included in dose response on each plate. RAW264.7 cells were infected with M. tuberculosis DREAM8 as described ([Manning et al., 2017]) at an MOI of 1 for 24 h and extracellular bacteria removed by washing. Cells were recovered using Accumax, harvested, washed and resuspended in serum-free RPMI; 30 μl of infected cells were dispensed into each well at 3,300 cells/well. Plates were incubated for 72 h, 10 μl of 5X SYBR Green I was added and plates were imaged with an ImageXpress Micro High Content Screening System (Molecular Devices) using a ×4 objective and FITC and Texas Red channels. MetaXpress was used to analyze images. The integrated intensity of M. tuberculosis or macrophages was calculated for each well. Growth inhibition was calculated for each test well by normalizing to the average integrated intensity of the DMSO control wells. IC50 was calculated as the compound concentration required to reduce bacterial growth by 50%. TC50 was calculated as the compound concentration required to reduce macrophage viability by 50%.

HepG2 cells = test: HepG2 cytotoxicity (CellTiter-Glo, 72 h); type: cell-based, human; conditions: for HepG2 cytotoxicity TC50 Galactose / HepG2 cytotoxicity TC50 Glucose: human, 72 h; for selectivity (SI) for HepG2: HepG2 cytotoxicity / intracellular IC50
Experimental: as §1, §2

M. tuberculosis [6] = tested on: M. tuberculosis; set-up: method as in PMID 30466326; conditions: inhibitor of M. tuberculosis ref 20; cited from earlier work
RAW264.7 cells [7] = tested on: RAW264.7 cells
[8] = Mycobacterium tuberculosis, axenic culture, SAR tables 4-8, read-out: Extracellular IC90
[9] = HepG2 cytotoxicity IC50 Galactose
[10] = HepG2 cytotoxicity IC50 Glucose
[11] = Mycobacterium tuberculosis, RAW264.7, in RAW264.7 macrophages, SAR tables 4-8, read-out: Intracellular Mtb IC50
[12] = Mycobacterium tuberculosis, 120 h, extracellular, 5 days, OD590
[13] = Mycobacterium tuberculosis, 120 h, extracellular, 5 days, OD590, read-out: Anti-tubercular activity in axenic culture IC90
[14] = Mycobacterium tuberculosis, RAW264.7, 72 h, M. tuberculosis in RAW264.7 cells, MOI 1, 72 h, read-out: Intracellular activity Anti-tubercular activity IC50

SMILES | IC90 (M. tuberculosis [1]; [8]) | IC50 at 72 h [2, 9] | IC50 at 72 h [2, 10] | Intracellular RAW TC50 (RAW264.7 cells [3]) | IC50 (M. tuberculosis [5]; [11]) | IC50 (M. tuberculosis [1]; [12]) | IC90 (M. tuberculosis [1]; [13]) | HepG2 cytotoxicity TC50 Galactose (HepG2 cells) | HepG2 cytotoxicity TC50 Glucose (HepG2 cells) | Intracellular activity Cytotoxicity TC50 (RAW264.7 cells [3]) | IC50 (M. tuberculosis [5]; [14]) | selectivity (SI) for HepG2 (HepG2 cells) | selectivity index (SI) (RAW264.7 cells [3]) | further results
Cc1ccc(OCC(=O)N2CCCc3ccccc32)cc1 [TPN-0006208] | > 20 µM | > 100 µM | > 100 µM | 86 ± 1.0 ^b µM | 13 µM |  |  |  |  |  |  |  |  | activity against non-replicating M. tuberculosis [4]: had activity
O=C(CSc1ccc(Cl)cc1)Nc1ccc(F)c(Cl)c1 [TPN-0006216] | > 20 µM | 33 ± 4 µM | 44 ± 2 µM | >100 ^b µM | 2.4 ± 0.5 µM | > 20 µM | > 20 µM | 33 ± 4 ^b µM | 44 ± 2 ^b µM | >100 ^d µM | 2.8 ± 0.78 µM |  |  | Intracellular RAW TC50 (RAW264.7 cells [3]; listed as 12): > 100 µM; selectivity index (TC50/IC50) (RAW264.7 cells [3]): > 42; IC90 (M. tuberculosis [6]): 6.9 mg/L (≈ 20.9 µM); activity against intracellular M. tuberculosis (M. tuberculosis [5]): good intracellular activity
CCOc1ccc(NC(=S)Nc2ccc(C)c(C#N)c2)cc1 [TPN-0073063] | 9.5 ± 3.2 µM | 35 ± 6.6 µM | 64 ± 40 µM | 47 ± 28 ^g µM |  | 5 ± 1.5 µM | 9.5 ± 3.2 µM | 34 ± 6.5 ^e µM | 40 ± 11 ^e µM | 47 ± 28 ^f µM | 0.25 ± 0.23 µM |  |  | selectivity index (TC50/IC50) (RAW264.7 cells [3]): > 150; IC50 (M. tuberculosis [5]; Mycobacterium tuberculosis, RAW264.7, read-out: Intracellular Mtb IC50, in RAW264.7 macrophages, SAR tables 4-8): 0.3 ± 0.2 µM
O=C(Nc1ccc(Cl)cc1)Nc1ccc(Nc2ccccc2)cc1 [TPN-0073077] | > 20 µM | > 100 µM | > 100 µM | 68 ± 23 ^b µM |  |  |  |  |  |  |  |  |  | cytotoxicity to macrophages (RAW264.7 cells [7]): cytotoxic
OCc1cn(-c2ccc(Cl)cc2)nc1-c1ccc(Cl)cc1 [TPN-0073562] | 19 ± 1.5 µM | 31 ± 2.2 µM | 31 ± 2.1 µM | 16 ± 11 ^c µM | 2.9 ± 0.5 µM | 12 ± 0.5 µM | 19 ± 1.5 µM | 31 ± 1.9 ^e µM | 31 ± 2.1 ^c µM | 16 ± 11 ^c µM | 2.9 ± 0.52 µM |  |  | 
OCc1cn(-c2ccc(F)cc2)nc1-c1cc(F)c(Cl)cc1Cl [TPN-0073565] | > 20 µM | 43 ± 2.3 µM | 46 ± 2.8 µM | >100 ^d µM | 7 ± 1.8 µM | 18.5 µM | > 20 µM | 43 ± 2.1 ^d µM | 46 ± 2.8 ^e µM | >100 ^d µM | 7 ± 1.8 µM |  |  | IC50 (M. tuberculosis [1]; extracellular, 5 days, OD590): > 20 µM
CCCOc1ccc(C(=O)Nc2sc(C)c(C)c2C(N)=O)cc1 [TPN-0073576] | > 20 µM | 89 ± 5.5 µM | 83 ± 2.9 µM | >100 ^d µM |  | > 20 µM | > 20 µM | 92 ± 7 ^c µM | 83 ± 2.9 ^c µM | >100 ^d µM | 1.1 ± 0.36 µM | > 80 | > 10 | IC50 (M. tuberculosis [5]; in RAW264.7 macrophages, SAR tables 4-8, listed as 26, read-out: Intracellular Mtb IC50): < 5 µM; IC50 (M. tuberculosis [5]; in RAW264.7 macrophages, SAR tables 4-8, read-out: Intracellular Mtb IC50): 1 ± 0.4 µM
O=C(Nc1ccc(Cl)c(Cl)c1)c1cccs1 [TPN-0073578] | > 20 µM | 4.7 ± 0.5 µM | 3.9 ± 1.1 µM | 11 ± 2.2 ^c µM |  | > 20 µM | > 20 µM | 4.7 ± 0.54 ^c µM | 3.9 ± 1.1 ^c µM | 11 ± 2.2 ^d µM | 1.7 ± 0.85 µM |  |  | IC50 (M. tuberculosis [5]; in RAW264.7 macrophages, SAR tables 4-8, listed as 27, read-out: Intracellular Mtb IC50): < 5 µM
COc1ccc(OCC(=O)Nc2sc3c(c2C(=O)NC2CCS(=O)(=O)C2)CCCC3)cc1 (centres unmarked) [TPN-0073584] | > 20 µM | > 100 µM | > 100 µM | >100 ^c µM | 5.1 ± 1.7 µM | > 20 µM | > 20 µM | >100 ^c µM | >100 ^c µM | >100 ^b µM | 5.1 ± 1.7 µM | 20 | > 10 | 
CCc1ccccc1NC(=O)c1c(NC(=O)c2cccc(Cl)c2)sc2c1CCC2 [TPN-0073585] | > 5 µM | > 25 µM | > 25 µM | 9.4 ± 1.9 ^c µM |  | > 5 µM | > 5 µM | >25 ^c µM | >25 ^c µM | 9.4 ± 1.9 ^c µM | 0.4 ± 0.11 µM | > 60 | > 10 | IC50 (M. tuberculosis [5]; in RAW264.7 macrophages, SAR tables 4-8, listed as 29, read-out: Intracellular Mtb IC50): < 5 µM
COC(=O)c1c(NC(NC(=O)c2cccs2)C(=O)c2ccccc2)sc(C(C)=O)c1C (centres unmarked) [TPN-0073588] | > 20 µM | > 100 µM | 93 ± 5.5 µM | 67 ± 8.5 ^b µM | 6.5 ± 1.7 µM | > 20 µM | > 20 µM | >100 ^c µM | >100 ^b µM | 67 ± 8.5 ^b µM | 6.5 ± 1.7 µM | 15 | > 10 | 
